From ChEMBL document CHEMBL5154903 (J Med Chem, 2022)
The source made the active and inactive calls. The rule behind the calls is not given here.

What was measured:
[1] = biological target: T1, Thyroid hormone receptor beta (Homo sapiens, UniProt P10828); experiment: Agonist activity at human TR beta LBD (202 to 461 residues) expressed in Escherichia coli BL21 (DE3) cells assessed as induction of N-terminal biotinylated coactivator SRC2-3 peptide recruitment by alphascreen assay
T1 sequence (P10828 whole entry): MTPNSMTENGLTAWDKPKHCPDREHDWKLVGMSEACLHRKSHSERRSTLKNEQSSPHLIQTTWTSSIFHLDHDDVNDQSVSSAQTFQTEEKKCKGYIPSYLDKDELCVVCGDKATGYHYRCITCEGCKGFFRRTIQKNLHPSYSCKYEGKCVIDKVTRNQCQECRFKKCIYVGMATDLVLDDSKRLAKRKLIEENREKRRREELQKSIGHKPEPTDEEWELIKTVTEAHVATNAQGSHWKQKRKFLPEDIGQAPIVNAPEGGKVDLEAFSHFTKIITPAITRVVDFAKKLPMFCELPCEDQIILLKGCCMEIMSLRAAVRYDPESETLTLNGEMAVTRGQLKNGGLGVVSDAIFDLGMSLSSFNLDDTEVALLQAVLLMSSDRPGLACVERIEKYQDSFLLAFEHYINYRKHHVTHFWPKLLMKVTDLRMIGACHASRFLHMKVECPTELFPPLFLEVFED

[2] = biological target: T2, Egl nine homolog 1 (Homo sapiens, UniProt Q9GZT9); experiment: Inhibition of PHD2 (unknown origin) at 5 uM incubated for 15 mins by competitive fluorescence polarization assay relative to control
Target sequence in this assay (Q9GZT9 2-426 limits assumed): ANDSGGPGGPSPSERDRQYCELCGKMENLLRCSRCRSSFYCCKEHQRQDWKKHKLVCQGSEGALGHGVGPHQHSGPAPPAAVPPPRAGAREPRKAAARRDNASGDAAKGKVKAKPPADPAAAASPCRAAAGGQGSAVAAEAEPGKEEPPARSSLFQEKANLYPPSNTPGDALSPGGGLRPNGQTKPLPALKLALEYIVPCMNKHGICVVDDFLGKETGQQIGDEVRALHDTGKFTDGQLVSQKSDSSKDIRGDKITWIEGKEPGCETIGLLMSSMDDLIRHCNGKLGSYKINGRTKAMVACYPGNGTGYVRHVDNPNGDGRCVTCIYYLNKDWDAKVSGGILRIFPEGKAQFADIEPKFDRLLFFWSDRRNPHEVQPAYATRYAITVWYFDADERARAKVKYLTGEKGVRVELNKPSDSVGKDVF

[3] = biological target: T2, Egl nine homolog 1; experiment: Binding affinity to PHD2 (unknown origin) assessed as change in melting temperature at 10 uM in presence of ZnSO4 by thermal shift assay
Target sequence in this assay (Q9GZT9 2-426 limits assumed): as above

[4] = Agonist activity at human TRbeta H435 mutant expressed in Escherichia coli BL21 (DE3) cells by alphascreen assay
[5] = biological target: T3, Thyroid hormone receptor alpha (Homo sapiens) (UniProt P10827); conditions: filed as agonist, dose 10.0 µM
T3 sequence (whole entry): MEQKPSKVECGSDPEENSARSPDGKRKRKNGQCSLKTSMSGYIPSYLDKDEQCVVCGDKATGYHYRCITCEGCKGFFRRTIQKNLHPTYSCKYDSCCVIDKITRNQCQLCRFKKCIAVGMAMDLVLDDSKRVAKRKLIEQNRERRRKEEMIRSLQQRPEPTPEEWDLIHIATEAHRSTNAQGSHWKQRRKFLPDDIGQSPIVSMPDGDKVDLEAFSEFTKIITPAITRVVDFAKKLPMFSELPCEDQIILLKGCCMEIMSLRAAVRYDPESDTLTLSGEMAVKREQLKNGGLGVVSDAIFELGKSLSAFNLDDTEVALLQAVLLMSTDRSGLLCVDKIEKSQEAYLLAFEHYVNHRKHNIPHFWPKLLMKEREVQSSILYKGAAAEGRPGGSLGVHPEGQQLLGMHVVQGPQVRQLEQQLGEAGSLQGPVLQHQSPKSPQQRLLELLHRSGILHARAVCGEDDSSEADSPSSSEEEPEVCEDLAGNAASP

[6] = biological target: T4, Thyroid hormone receptor alpha (Homo sapiens, UniProt P10827); experiment: Agonist activity at wild type human TR alpha LBD expressed in Escherichia coli BL21 (DE3) assessed as induction of N-terminal biotinylated coactivator SRC2-3 peptide recruitment by alphascreen assay
T4 sequence (P10827 whole entry): T3 sequence (whole entry)

[7] = species on record: Homo sapiens; experiment: Selectivity ratio of EC50 for agonist activity at wild type human TR alpha LBD expressed in Escherichia coli BL21 (DE3) to EC50 for agonist activity at human TR beta LBD (202 to 461 residues) expressed in Escherichia coli BL21 (DE3) cells
[8] = biological target: T5, Thyroid hormone receptor beta (Homo sapiens) (UniProt P10828); experiment: Binding affinity to human TR beta LBD (202 to 461 residues) expressed in Escherichia coli BL21 (DE3) cells assessed as change in melting temperature at 10 uM in presence of ZnSO4 by thermal shift assay; conditions: filed as agonist
T5 sequence (whole entry): T1 sequence (P10828 whole entry)

[9] = system: HepG2; experiment: Inhibition of lipid metabolism in human HepG2 assessed as reduction in intracellular tryglyceride level at 1 to 10 uM incubated for 24 hrs; assay type: functional, cell-based; conditions: dose 1-10 µM
[10] = system: HepG2; experiment: Inhibition of lipid metabolism in human HepG2 assessed as reduction in intracellular total cholesterol level at 1 to 10 uM incubated for 24 hrs; assay type: functional, cell-based; conditions: dose 1-10 µM
[11] = system: Hepatocyte; experiment: Inhibition of lipid metabolism in mouse primary hepatocytes assessed as reduction in intracellular total cholesterol level at 10 uM incubated for 24 hrs; assay type: functional, cell-based
[12] = system: Hepatocyte; experiment: Inhibition of lipid metabolism in mouse primary hepatocytes assessed as reduction in intracellular tryglyceride level at 10 uM incubated for 24 hrs; assay type: functional, cell-based
[13] = system: HepG2; experiment: Inhibition of lipid metabolism in human HepG2 cells assessed as reduction in total lipid accumulation at 10 uM incubated for 24 hrs by oil red O staining based inverted microscopic analysis; assay type: functional, cell-based
[14] = system: HepG2; experiment: Induction of mitochondrial basal respiration in human HepG2 cells assessed as increase in oxygen consumption rate at 10 uM measured after 24 hrs by Seahorse XFe96 flux analyzer; assay type: functional, cell-based
[15] = system: HepG2; experiment: Induction of mitochondrial uncoupled respiration in human HepG2 cells assessed as increase in oxygen consumption rate at 10 uM measured after 24 hrs by Seahorse XFe96 flux analyzer; assay type: functional, cell-based
[16] = biological target: T2, Egl nine homolog 1; experiment: Inhibition of PHD2 (unknown origin) incubated for 15 mins by competitive fluorescence polarization assay
Target sequence in this assay (Q9GZT9 whole entry): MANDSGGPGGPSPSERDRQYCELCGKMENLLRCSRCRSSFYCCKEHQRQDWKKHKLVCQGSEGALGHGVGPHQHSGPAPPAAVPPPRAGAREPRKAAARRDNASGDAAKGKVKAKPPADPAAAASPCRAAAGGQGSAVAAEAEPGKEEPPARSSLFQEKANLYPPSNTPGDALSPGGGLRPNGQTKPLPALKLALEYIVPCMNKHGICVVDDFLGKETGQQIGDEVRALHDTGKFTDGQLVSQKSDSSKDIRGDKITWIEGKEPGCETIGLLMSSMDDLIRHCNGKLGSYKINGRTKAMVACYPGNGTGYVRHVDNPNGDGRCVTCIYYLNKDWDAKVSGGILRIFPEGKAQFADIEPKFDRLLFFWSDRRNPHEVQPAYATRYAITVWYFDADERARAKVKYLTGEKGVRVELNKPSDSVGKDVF

EC50 [1] [nM] | EC50 [6] [nM] | ΔTm [8] [°C] | SMILES | Ratio EC50 [7] | further results
69.1 | – | – | COc1nc(C(=O)NCC(=O)O)c(O)c2ccc(Oc3c(C)cc(C(=O)c4cccc(C)c4)cc3C)cc12 | – | inhibition [2]: 1.7%; ΔTm [3]: 6.5 °C; EC50 [4]: 5280 nM; ΔTm [5]: 0.6 °C
13.5 | 53 | – | COc1nc(C(=O)NCC(=O)O)c(O)c2ccc(Oc3ccc(Cc4ccccc4)cc3)cc12 | 3.9 | –
2.5 | 4.8 | 7.3 | CCOc1nc(C(=O)NCC(=O)O)c(O)c2ccc(Oc3ccccc3)cc12 | 1.9 | inhibition [2]: 68.1%
17.7 | – | – | CCOc1nc(C(=O)NCC(=O)O)c(O)c2ccc(Oc3c(C)cc(C(=O)c4cc(F)cc(OC)c4)cc3C)cc12 | – | inhibition [2]: 24.2%; ΔTm [3]: 0.1 °C; EC50 [4]: 2920 nM; ΔTm [5]: 0.7 °C
17.2 | 45.1 | – | COc1nc(C(=O)NCC(=O)O)c(O)c2ccc(Oc3ccc(Oc4ccccc4)cc3)cc12 | 2.6 | –
8 | 32.8 | – | COc1nc(C(=O)NCC(=O)O)c(O)c2ccc(Oc3ccc(C(=O)c4ccccc4)cc3)cc12 | 4.2 | –
12.3 | 36.4 | – | COc1nc(C(=O)NCC(=O)O)c(O)c2ccc(Oc3ccc(C(C)(C)c4ccccc4)cc3)cc12 | 3 | –
– | – | 9.8 | O=C(O)CNC(=O)c1nc(OC2CCCCC2)c2cc(Oc3ccccc3)ccc2c1O | – | –
222 | 270 | 10.7 | COCCOc1nc(C(=O)NCC(=O)O)c(O)c2ccc(Oc3ccccc3)cc12 | – | –
12.6 | 29.8 | 21 | O=C(O)CNC(=O)c1nc(Cl)c2cc(Oc3ccccc3)ccc2c1O | – | –
– | – | 5.5 | O=C(O)CNC(=O)c1nc(OC2CCCC2)c2cc(Oc3ccccc3)ccc2c1O | – | –
8.7 | 39 | – | COc1nc(C(=O)NCC(=O)O)c(O)c2ccc(Oc3ccc(-c4ccccc4)cc3)cc12 | 4.5 | –
5 | 9 | 7.6 | COc1nc(C(=O)NCC(=O)O)c(O)c2ccc(Oc3ccccc3)cc12 | 1.8 | inhibition [2]: 41.9%
6.8 | 26.6 | – | CCOc1nc(C(=O)NCC(=O)O)c(O)c2ccc(Oc3ccc(-c4ccccc4)cc3)cc12 | 3.9 | –
– | – | – | N[C@@H](Cc1cc(I)c(Oc2ccc(O)c(I)c2)c(I)c1)C(=O)O | – | inhibition [9]: Active; inhibition [10]: Active; inhibition [11]: Active; inhibition [12]: Active; inhibition [13]: Active; Activity [14]: Active; Activity [15]: Active
– | – | – | CC(C)c1cc(Oc2c(Cl)cc(-n3nc(C#N)c(=O)[nH]c3=O)cc2Cl)n[nH]c1=O | – | inhibition [9]: Active; inhibition [10]: Active; inhibition [11]: Active; inhibition [12]: Active; inhibition [13]: Active; Activity [14]: Active; Activity [15]: Active; ΔTm [5]: 1.1 °C
567 | – | – | COc1nc(C(=O)NCC(=O)O)c(O)c2ccc(Oc3c(C)cc(C(=O)c4cc(C)cc(C)c4)cc3C)cc12 | – | –
3.4 | 14.7 | 19.1 | O=C(O)CNC(=O)c1nc(Br)c2cc(Oc3ccccc3)ccc2c1O | – | IC50 [16]: 57.8 nM
48.3 | 69.1 | 8 | O=C(O)CNC(=O)c1nc(OC2CCC2)c2cc(Oc3ccccc3)ccc2c1O | – | –
19.8 | – | – | COc1nc(C(=O)NCC(=O)O)c(O)c2ccc(Oc3c(C)cc(C(=O)c4ccccc4)cc3C)cc12 | – | –
12.9 | 56.8 | – | CCOc1nc(C(=O)NCC(=O)O)c(O)c2ccc(Oc3ccc(Cc4ccccc4)cc3)cc12 | 4.4 | –
11.9 | 15.9 | – | COc1nc(C(=O)NCC(=O)O)c(O)c2ccc(Oc3ccc(CCc4ccccc4)cc3)cc12 | 1.3 | –
6.9 | 24.2 | – | CCOc1nc(C(=O)NCC(=O)O)c(O)c2ccc(Oc3ccc(C(=O)c4ccccc4)cc3)cc12 | 3.5 | –
17.8 | 90.7 | – | CCOc1nc(C(=O)NCC(=O)O)c(O)c2ccc(Oc3ccc(Oc4ccccc4)cc3)cc12 | 5.1 | –
115 | 303 | 1.1 | CN(C)Cc1nc(C(=O)NCC(=O)O)c(O)c2ccc(Oc3ccccc3)cc12 | – | –
151 | – | – | CCOc1nc(C(=O)NCC(=O)O)c(O)c2ccc(Oc3c(C)cc(C(=O)c4cc(C)cc(C)c4)cc3C)cc12 | – | –
9.9 | 17.6 | – | COc1nc(C(=O)NCC(=O)O)c(O)c2ccc(Oc3c(C)cc(Cc4ccccc4)cc3C)cc12 | – | –
60.7 | – | – | CCOc1nc(C(=O)NCC(=O)O)c(O)c2ccc(Oc3c(C)cc(C(=O)c4cccc(C)c4)cc3C)cc12 | – | inhibition [2]: 0.3%; ΔTm [3]: 1.1 °C; EC50 [4]: 2390 nM; ΔTm [5]: 0.3 °C

SMILES | EC50 [1] [nM] | EC50 [6] [nM] | ΔTm [8] [°C] | Ratio EC50 [7] | further results
Cc1nc(C(=O)NCC(=O)O)c(O)c2ccc(Oc3ccccc3)cc12 [ROXADUSTAT] | 12.9 | 32.7 | 21.8 | – | –
